This data set in a line: PK studies in mice. It counts as in vivo. Conditions: male CD1 mice (n = 3), oral gavage, cassette dose 10 mg/kg each. Here is the method: A total number of 3 adult male RjOrl:Swiss (CD-1) mice were housed in a temperature-controlled room (20–24 °C) and maintained in a 12 h light/12 h dark cycle. Food and water were provided ad libitum. All experimental procedures were approved by and conducted in accordance with the regulations of the local Animal Welfare authorities (Landesamt für Gesundheit and Verbraucherschutz, Abteilung Lebensmittel- and Veterinärwesen, Saarbrücken). At each time point a volume of 100–150 μL Li-heparin whole blood, i.e. 40–50 μL Li-heparin plasma, was collected from the retrobulbar venous plexus under short isoflurane anesthesia. The plasma samples were prepared within 45 min after collection, frozen at −20 °C and stored at this temperature until processed for LC–MS analysis. The PK studies were performed by the CRO Pharmacelsus GmbH under the protocol number 2021UFM002.

[1] abbreviates: CD-1 (RjOrl:Swiss), mouse, plasma.

One may read the AUC(0-inf) as total exposure, with the tail of the curve extrapolated. Low readings indicate less exposure, high ones more exposure. What is called CL/F is clearance divided by bioavailability, as obtained after extravascular dosing. The half-life is how long it takes for the measured level to halve.

`CCC1(CC(=O)O)OCCc2c1[nH]c1c(Cc3ccccc3)cc(F)cc21` (stereo not shown) [Compound 51, 2-(8-Benzyl-1-ethyl-6-fluoro-1,3,4,9-tetrahydropyrano[3,4-b]indol-1-yl)acetic Acid]: the “C 24h ± CV %” value is 819 ± 76.7% and the “C max ± CV %” value stood at 3170 ± 58.6%. Under setting [1], this compound had an area under the curve AUC(0-inf) of 59300 ng·h/mL, an apparent clearance (CL/F) of 2.82 mL/min/kg and a half-life of 11.6 h. In addition, the AUC(0-t) (CD-1 (RjOrl:Swiss), mouse, plasma, read-out: AUC0–24) came out at 45600 ng·h/mL. The Vd/F (CD-1 (RjOrl:Swiss), mouse, plasma, read-out: V z/f) is 2.82 L/kg.

The values above are taken from publication PMC12621201, “Exploiting the 2‑(1,3,4,9-tetrahydropyrano[3,4‑b]indol-1-yl)acetic Acid Scaffold to Generate COXTRANs: A New Class of Dual Cyclooxygenase Inhibitors-Thromboxane Receptor Antagonists” (Journal of Medicinal Chemistry, 2025).
